pIC50: −log10 of the molar value.
Tested on: 565726-208-R1-J5-PDC complex spheroids, growth inhibition
Experiment: Anticancer human tumor 565726-208-R1-J5-PDC patient-derived pancreatic adenocarcinoma cell line growth inhibition [RAS]
Details: for pIC50: curve of first compound; for viability, T/C: stronger effect = lower value; active = viability on the fitted dose curve at most 10% of control; inactive = the rest
Method in brief: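 Agents were tested in combination matrices in half-log decrements from a top concentration at or near clinical Cmax (10 microM if undetermined). Targets were multi-cell spheroids of tumour lines plus HUVEC and MSC stromal cells.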

[1] = second compound 0.000949 µM, first compound 0.00316 µM
[2] = second compound 0.000949 µM, first compound 0.01 µM
[3] = second compound 0.000949 µM, first compound 0.0316 µM
[4] = second compound 0.000949 µM, first compound 0.1 µM
[5] = second compound 0.000949 µM, first compound 0.316 µM
[6] = second compound 0.000949 µM, first compound 1 µM
[7] = second compound 0.003 µM, first compound 0.00316 µM
[8] = second compound 0.003 µM, first compound 0.01 µM
[9] = second compound 0.003 µM, first compound 0.0316 µM
[10] = second compound 0.003 µM, first compound 0.1 µM
[11] = second compound 0.003 µM, first compound 0.316 µM
[12] = second compound 0.003 µM, first compound 1 µM
[13] = second compound 0.00949 µM, first compound 0.00316 µM
[14] = second compound 0.00949 µM, first compound 0.01 µM
[15] = second compound 0.00949 µM, first compound 0.0316 µM
[16] = second compound 0.00949 µM, first compound 0.1 µM
[17] = second compound 0.00949 µM, first compound 0.316 µM
[18] = second compound 0.00949 µM, first compound 1 µM
[19] = second compound 0.03 µM, first compound 0.00316 µM
[20] = second compound 0.03 µM, first compound 0.01 µM
[21] = second compound 0.03 µM, first compound 0.0316 µM
[22] = second compound 0.03 µM, first compound 0.1 µM
[23] = second compound 0.03 µM, first compound 0.316 µM
[24] = second compound 0.03 µM, first compound 1 µM
[25] = second compound 0.0949 µM, first compound 0.00316 µM
[26] = second compound 0.0949 µM, first compound 0.01 µM
[27] = second compound 0.0949 µM, first compound 0.0316 µM
[28] = second compound 0.0949 µM, first compound 0.1 µM
[29] = second compound 0.0949 µM, first compound 0.316 µM
[30] = second compound 0.0949 µM, first compound 1 µM
[31] = second compound 0.3 µM, first compound 0.00316 µM
[32] = second compound 0.3 µM, first compound 0.01 µM
[33] = second compound 0.3 µM, first compound 0.0316 µM
[34] = second compound 0.3 µM, first compound 0.1 µM
[35] = second compound 0.3 µM, first compound 0.316 µM
[36] = second compound 0.3 µM, first compound 1 µM
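Also: spheroids exposed to compounds for seven days before readout.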
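For viability, T/C in this document: 100% = DMSO vehicle control viability.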

C=CC(=O)N1CCN(c2nc(OCC3CCCN3C)nc3c(F)c(-c4nc(N)cc(C)c4C(F)(F)F)c(Cl)cc23)C(C)C1 (centres undefined) + CCn1c(-c2cccnc2C(C)OC)c2c3cc(ccc31)N1CCOC(CC(NC(=O)C(C(C)C)N(C)C(=O)C3(F)CCN(C(=O)C#CC(C)(C)N(C)C)CC3)C(=O)N3CCCC(N3)C(=O)OCC(C)(C)C2)C1
< 6.00: pIC50 (second compound 0.000949 µM) | pIC50 (second compound 0.003 µM) | pIC50 (second compound 0.00949 µM) | pIC50 (second compound 0.03 µM) | pIC50 (second compound 0.0949 µM) | pIC50 (second compound 0.3 µM)
inactive: viability, T/C [1] 99.3% | viability, T/C [2] 98.6% | viability, T/C [3] 108% | viability, T/C [4] 111% | viability, T/C [5] 97% | viability, T/C [6] 102% | viability, T/C [7] 103% | viability, T/C [8] 109% | viability, T/C [9] 105% | viability, T/C [10] 93.6% | viability, T/C [11] 96.9% | viability, T/C [12] 103% | viability, T/C [13] 106% | viability, T/C [14] 112% | viability, T/C [15] 104% | viability, T/C [16] 107% | viability, T/C [17] 96.8% | viability, T/C [18] 100% | viability, T/C [19] 99.3% | viability, T/C [20] 97.7% | viability, T/C [21] 111% | viability, T/C [22] 98.7% | viability, T/C [23] 98.6% | viability, T/C [24] 104% | viability, T/C [25] 97.1% | viability, T/C [26] 109% | viability, T/C [27] 109% | viability, T/C [28] 94.8% | viability, T/C [29] 100% | viability, T/C [30] 94.5% | viability, T/C [31] 93.7% | viability, T/C [32] 79% | viability, T/C [33] 96.7% | viability, T/C [34] 95.4% | viability, T/C [35] 90.3% | viability, T/C [36] 85.3%

O=C(c1ccc(F)c(F)c1Nc1ccc(I)cc1F)N1CC(O)([C@@H]2CCCCN2)C1 + CCn1c(-c2cccnc2C(C)OC)c2c3cc(ccc31)N1CCOC(CC(NC(=O)C(C(C)C)N(C)C(=O)C3(F)CCN(C(=O)C#CC(C)(C)N(C)C)CC3)C(=O)N3CCCC(N3)C(=O)OCC(C)(C)C2)C1
inactive: viability, T/C [1] 95.3% | viability, T/C [2] 83.2% | viability, T/C [3] 76.8% | viability, T/C [4] 55.4% | viability, T/C [5] 40% | viability, T/C [6] 17.7% | viability, T/C [7] 96.4% | viability, T/C [8] 80.4% | viability, T/C [9] 71.8% | viability, T/C [10] 53.2% | viability, T/C [11] 36.8% | viability, T/C [12] 19% | viability, T/C [13] 93.7% | viability, T/C [14] 87.3% | viability, T/C [15] 67.7% | viability, T/C [16] 57.1% | viability, T/C [17] 43.2% | viability, T/C [18] 19.9% | viability, T/C [19] 82.7% | viability, T/C [20] 82.3% | viability, T/C [21] 77.9% | viability, T/C [22] 59.5% | viability, T/C [23] 40.6% | viability, T/C [24] 19.4% | viability, T/C [25] 82.8% | viability, T/C [26] 78.8% | viability, T/C [27] 72.9% | viability, T/C [28] 57.4% | viability, T/C [29] 43.8% | viability, T/C [30] 19.8% | viability, T/C [31] 82.6% | viability, T/C [32] 71.2% | viability, T/C [33] 67.5% | viability, T/C [34] 45.9% | viability, T/C [35] 34.4% | viability, T/C [36] 13.6%
6.89: pIC50 (second compound 0.003 µM)
7.02: pIC50 (second compound 0.3 µM)
6.74: pIC50 (second compound 0.03 µM)
6.80: pIC50 (second compound 0.00949 µM)
6.79: pIC50 (second compound 0.000949 µM)
6.72: pIC50 (second compound 0.0949 µM)
